From PMC4832382, “GacA is essential for Group A S treptococcus and defines a new class of monomeric dTDP‐4‐dehydrorhamnose reductases (RmlD)” (Molecular Microbiology, 2015)

Assays:
[1] = biological target: T1, GacA (dTDP-4-dehydrorhamnose reductase, RmlD) (Streptococcus pyogenes, UniProt Q9A0G6); assay: SPR (Biacore T200), equilibrium fit, […]°C; type: binding
T1 construct: full-length gacA (AAZ51220.1; M5005_Spy_0602), chemically biotinylated

[2] = biological target: the molecule itself; assay: SEC; size-exclusion chromatography of purified wild-type SeRmlD and triple mutant, retention compared with GacA

T1 sequence (Q9A0G6 entry or part of it): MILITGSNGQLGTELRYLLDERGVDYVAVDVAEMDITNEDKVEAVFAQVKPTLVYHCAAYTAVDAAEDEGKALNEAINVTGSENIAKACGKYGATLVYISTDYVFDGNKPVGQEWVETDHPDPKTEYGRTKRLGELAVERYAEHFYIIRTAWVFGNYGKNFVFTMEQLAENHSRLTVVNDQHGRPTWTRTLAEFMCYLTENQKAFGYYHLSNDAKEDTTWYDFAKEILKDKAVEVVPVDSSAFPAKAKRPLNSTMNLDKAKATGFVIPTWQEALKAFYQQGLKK

NC(=O)C1=CN([C@@H]2O[C@H](COP(=O)(O)OP(=O)(O)OC[C@H]3O[C@@H](n4cnc5c(N)ncnc54)[C@H](O)[C@@H]3O)[C@@H](O)[C@H]2O)C=CC1 [NADH]
Kd [1]: 110 µM

NC(=O)C1=CN([C@@H]2O[C@H](COP(=O)(O)OP(=O)(O)OC[C@H]3O[C@@H](n4cnc5c(N)ncnc54)[C@H](OP(=O)(O)O)[C@@H]3O)[C@@H](O)[C@H]2O)C=CC1 [NADPH]
Kd [1]: 390 µM

B1: RmlD (dTDP-4-dehydrorhamnose reductase) from Salmonella enterica serovar Typhimurium, wild type (enzyme, Salmonella enterica (LT2), UniProt P26392 1-299, looked up)
chain: MNILLFGKTGQVGWELQRSLAPVGNLIALDVHSKEFCGDFSNPKGVAETVRKLRPDVIVNAAAHTAVDKAESEPELAQLLNATSVEAIAKAANETGAWVVHYSTDYVFPGTGDIPWQETDATSPLNVYGKTKLAGEKALQDNCPKHLIFRTSWVYAGKGNNFAKTMLRLAKERQTLSVINDQYGAPTGAELLADCTAHAIRVALNKPEVAGLYHLVAGGTTTWHDYAALVFDEARKAGITLALTELNAVPTSAYPTPASRPGNSRLNTEKFQRNFDLILPQWELGVKRMLTEMFTTTTI
notes: RmlD, Salmonella enterica serovar Typhimurium LT2, full-length rmlD (GI 16420628); also called SeRmlD; wild-type SeRmlD; source: E. coli BL21(DE3), expressed and purified as described for GacA; not shown: His6, N-terminal, cleaved; GST, N-terminal, cleaved
stoichiometry N [2]: 2
